Tested on: healthy volunteers, 5 hour advance in bedtime
Assay: Example 1: placebo-controlled clinical trial, 5 hour advance in bedtime (DLMO, PSG)
Format: in vivo, human
Protocol: A clinical trial was conducted to assess the safety of Compound A as well as to determine the ability of Compound A to shift the sleep/wake cycle following a 5 hour advance in bedtime. The study was a randomized, double-blind, parallel group, placebo-controlled study. It consisted of a 2-4 week outpatient screening period followed by an 8-day inpatient stay. After acclimating to the sleep lab, bedtime was advanced by 5 hours. The primary objectives of this study were to investigate the exposure-response to Compound A on advancement of circadian release of endogenous melatonin rhythm as measured by dim light melatonin onset (DLMO, a biomarker of the sleep-wake cycle), to investigate the exposure-response to Compound A on mean sleep efficiency parameters as measured by PSG, to investigate the exposure-response to Compound A on objective neurobehavioral performance lapses during scheduled work-time as measured by computerized continuous performance testing, and to assess the safety and tolerability of Compound A. Forty-five healthy volunteers, men and women aged 18-50, were enrolled into this study. Thirty-nine subjects were randomized.
The study was designed to assess the safety and efficacy of four oral doses of Compound A (10 mg, 20 mg, 50 mg and 100 mg) compared to matching placebo on circadian phase shift, sleep parameters during the major sleep episode, and subject alertness. After written informed consent was signed, subjects that met the inclusion/exclusion criteria at screening and baseline were enrolled into the 8-day in-patient portion of the study. All in-patient assessments were conducted in a time-isolation sleep lab in which no time cues were available to subjects. During the first three nights, subjects were given placebo 30 minutes prior to bedtime (11:00 PM) in a single-blind fashion. Baseline assessments for the efficacy parameters were measured during this period. At 5:00 PM on day 3, subjects started a 19 hour pre-constant posture (CP) segment during which time the subjects remained seated in a semi-recumbent position and blood samples were collected approximately every hour from 7:00 AM to 12:00 PM. The purpose of the pre-CP segment is to provide a measure of each subject's circadian phase before the start of the night shift segment. On day 4, subjects were randomized to once daily treatment in one of the five treatment groups. In addition, subject sleep-wake routines were advanced 5 hours, such that subjects were required to sleep from approximately 6:00 PM-2:00 AM. Treatment was administered and the time shift was maintained for 3 days. Efficacy parameters were collected during this time. To measure circadian phase at the end of the study, a 24-hour post-CP was conducted immediately after the treatment segment on day 7. Over the course of the study, approximately 500 mL of blood was drawn from each subject. Safety was assessed throughout the study, at the end of study (EOS) visit on day 8, and at the Follow-up visit. The target number of subjects for enrollment was 40 but 45 were actually enrolled.
To assess circadian sleep-wake cycles in the study, plasma melatonin levels were assessed. The onset of melatonin production, or dim light melatonin onset (DLMO), is associated with onset of sleep. DLMO is considered a standard marker used frequently to assess circadian phase. To assess the effects of Compound A on the sleep-wake cycles, DLMO was monitored in subjects before and after treatment. For this study, DLMO was defined as the time when melatonin production reaches 25% of the nightly peak (MEL25% up) of the fitted melatonin phase curve.
Because light has a significant confounding effect on melatonin release, light levels in the sleep laboratory were carefully regulated. […]

CCC(=O)NC[C@@H]1C[C@H]1c1cccc2c1CCO2 [Compound A, N-[[(1R,2R)-2-(2,3-dihydro-1-benzofuran-4-yl)cycloproply]methyl]propanamide]
Change in DLMO25%,LOQ5 between Night 4 and Night 3 (10 mg, N = 8): 0.18 h
Change in WASO (fraction of time awake from persistent sleep to lights on) between Night 4 and Night 2 (10 mg, N = 8): 8.37 % points
Change in WASO between Night 4 and Night 2 (10 mg, N = 8): 40.56 min
Mean Change in Sleep Efficiency between Night 4 and Night 2, Full Night (10 mg, N = 8): −7.77 % points
Change in Latency to Persistent Sleep between Night 4 and Night 2 (10 mg, N = 8, mean ± SD, p 0.0034 vs placebo): -8.25 ± 16.34 min
Mean Change in Sleep Efficiency between Night 4 and Night 2, 2nd Third of the Night (10 mg, N = 8, mean ± SD, p 0.0303 vs placebo): −12.64 ± 13.83 % points
Change in DLMO25%,LOQ5 between Night 4 and Night 3 (20 mg, N = 7): -1.14 h
Change in Latency to Persistent Sleep between Night 4 and Night 2 (20 mg, N = 8): 5.00 min
Change in WASO (fraction of time awake from persistent sleep to lights on) between Night 4 and Night 2 (20 mg, N = 8): 6.91 % points
Change in WASO between Night 4 and Night 2 (20 mg, N = 8): 31.19 min
Mean Change in Sleep Efficiency between Night 4 and Night 2, Full Night (20 mg, N = 8): −6.68 % points
Mean Change in Sleep Efficiency between Night 4 and Night 2, 2nd Third of the Night (20 mg, N = 8, mean ± SD, p 0.0048 vs placebo): −5.11 ± 12.78 % points
Change in DLMO25%,LOQ5 between Night 4 and Night 3 (50 mg, N = 4): -0.50 h
Change in WASO (fraction of time awake from persistent sleep to lights on) between Night 4 and Night 2 (50 mg, N = 7): 6.61 % points
Change in WASO between Night 4 and Night 2 (50 mg, N = 7): 31.21 min
Mean Change in Sleep Efficiency between Night 4 and Night 2, 2nd Third of the Night (50 mg, N = 7, mean ± SD, p 0.0028 vs placebo): −2.10 ± 4.14 % points
Change in Latency to Persistent Sleep between Night 4 and Night 2 (50 mg, N = 7, mean ± SD, p 0.0193 vs placebo): -3.71 ± 10.97 min
Mean Change in Sleep Efficiency between Night 4 and Night 2, Full Night (50 mg, N = 7, mean ± SD, p 0.0487 vs placebo): −5.87 ± 9.89 % points
Change in DLMO25%,LOQ5 between Night 4 and Night 3 (100 mg, N = 5, mean ± SD, p 0.0276 vs placebo): -2.74 ± 1.95 h
Change in Latency to Persistent Sleep between Night 4 and Night 2 (100 mg, N = 6, mean ± SD, p 0.0214 vs placebo): -4.17 ± 6.93 min
Mean Change in Sleep Efficiency between Night 4 and Night 2, 2nd Third of the Night (100 mg, N = 7, mean ± SD, p 0.0030 vs placebo): −2.30 ± 5.72 % points
Mean Change in Sleep Efficiency between Night 4 and Night 2, Full Night (100 mg, N = 7, mean ± SD, p 0.0141 vs placebo): −2.02 ± 4.94 % points
Change in WASO (fraction of time awake from persistent sleep to lights on) between Night 4 and Night 2 (100 mg, N = 7, mean ± SD, p 0.0391 vs placebo): 1.85 ± 4.29 % points
Change in WASO between Night 4 and Night 2 (100 mg, N = 7, mean ± SD, p 0.0452 vs placebo): 8.50 ± 20.39 min
number of episodes of REM during the final third of the night (Night 4, after phase advance): dose-related increase
percentage of time in each sleep stage (between Night 4 and Night 2): did not change
tolerability (doses of 10, 20, 50, and 100 mg, conclusion from Examples 1 and 2): well-tolerated
lowest effective dose for DLMO shift (first dose with statistically significant p-value in ANOVA with contrasts): 100 mg
